Test results as given in patent US20190167771A1, “CONTROL ANGIOGENESIS BY REGULATING PHOSPHORYLATION OF SERYL-tRNA SYNTHETASE (SerRS)” (The Scripps Research Institute, priority 2016, published 2019).

System: Vegfa
Experiment: Vegfa mRNA by qRT-PCR in zebrafish embryos with SerRS knockdown and mRNA co-injection
Type: in vivo
Details: human SerRS mRNA co-injected with SerRS-MO, 3 dpf
Method: In FIG. 2A, wild type SerRS (SerRS^WT), its mutants with double substitutions of serine 101 and 241 with alanine or aspartic acid residues (SerRS^S101A/S241A and SerRS^S101D/S241D), or empty vector were transfected into HEK293 cells. The expression levels of SerRS proteins was measured by immunoblot (bottom) and VEGFA expression was determined by qRT-PCR (means±SEM from three independent experiments; ***P<0.0001). In FIGS. 2B-D, the roles of SerRS^S101A/S241A and SerRS^S101D/S241D in regulating vascular development in vivo in zebrafish were examined by co-injection of SerRS^S101A/S241A and SerRS^S101D/S241D mRNAs into one-cell-stage embryos whose endogenous SerRS was knocked down by injection of antisense morpholino (SerRS-MO) that led to abnormal high expression of Vegfa and hypervascularization (shown by short bold arrows in FIG. 2C). At 3 day post fertilization (dpf), embryos were harvested and Vegfa expression levels were measured by qRT-PCR (means±SEM, n=125-211; *P<0.01, **P<0.001) (B). The development of intersegmental vessel (ISV) at 3 dpf was examined (C) and the statistics of ISV abnormal branching rescued by SerRS^WT or mutant SerRS mRNA injections was analyzed (D; χ^2-test,* P>0.05 vs SerRS^WT, **P>0.1 vs SerRS-MO, ***P<1×10^−28 vs control-MO). In FIG. 2E, the binding affinities of SerRS^WT or SerRS^S101D/S241D with ^32P labeled DNA fragments corresponding to SerRS binding site on human VEGFA promoter were examined by EMSA. In FIG. 2F, the binding of SerRS^WT, SerRS^S101A/S241A, or SerRS^S101D/S241D on VEGFA promoter in HEK293 cells was examined by chromatin immunoprecipitation (ChIP) and qPCR (means±SEM from two independent experiments; ***P<0.0001). In FIG. 2G, the binding of endogenous SerRS on VEGFA promoter during hypoxia course was monitored by ChIP (means±SEM from three independent experiments; *P<0.05, **P<0.005 vs normal).
Total RNA was isolated from cells and zebrafish embryos by TRIzol Reagent (ThermoFisher Scientific). […] of the total RNA from each sample was reversely transcribed to cDNA by M-MLV reverse transcriptase (Promega, Madison, Wis., USA). All real-time PCR reactions were performed using the StepOnePlus Real-Time PCR system (ThermoFisher Scientific) with SYBR Select Master Mix ThermoFisher Scientific). […]

Substance | rescue of Vegfa mRNA increase caused by SerRS-MO
SerRS^S101A/S241A: phosphorylation-deficient human SerRS double mutant, serine 101 and 241 to alanine, SEQ ID NO: 4 (mouse version in matrigel assay) | rescued or largely rescued
SerRS^S101D/S241D: SerRS with double substitutions of S101 and S241 with aspartic acid, mimics the phosphorylated SerRS | no rescue effect at all
SerRS^WT: wildtype human seryl-tRNA synthetase protein, SEQ ID NO: 1 (mouse wild type used in the 3B11 matrigel assay) | rescued or largely rescued
